Among the data in patent publication US10689377B2 (Mirati Therapeutics, Inc., priority 2017, dated 2020) are IC50 values, retold here.

As a reminder, the IC50 is the concentration at which inhibition is half-maximal.

Each structure is given as a SMILES string. Bounds are passed on as bounds.

Sequence of KRas G12C (P01116 1-188 isoform P01116-2 G12C): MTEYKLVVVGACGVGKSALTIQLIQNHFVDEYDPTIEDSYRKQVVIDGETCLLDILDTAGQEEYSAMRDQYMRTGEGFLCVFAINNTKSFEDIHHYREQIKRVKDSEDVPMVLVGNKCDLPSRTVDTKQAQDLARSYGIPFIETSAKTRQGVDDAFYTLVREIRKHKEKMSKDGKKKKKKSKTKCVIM

The target in the assay is KRas G12C (Homo sapiens, UniProt P01116, G12C). Nature of the assay: Cellular inhibition of KRas G12C measured by Phospho-ERK in NCI-H358 cells. The format is cell-based. The settings on record: pERK(Thr202/Tyr204) normalized with GAPDH, NCI-H358 cells, 3 hours; read-out: IC50. In outline:
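Ratio of phospho-ERK(Thr202/Tyr204) to GAPDH, read by near-infrared secondary antibodies on fixed, permeabilised NCI-H358 cells, expressed relative to DMSO control. Compound exposure was 3 h at 0.5% DMSO. IC50 values come from 4-parameter curve fits.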
Take `C=CC(=O)N1CCN(c2nc(O[C@@H](C)[C@@H]3CCCN3C)nc3c2CCN(c2cc(O)cc4ccccc24)C3)CC1` [Example 130, 1-(4-(7-(3-hydroxynaphthalen-1-yl)-2-((S)-1-((S)-1-methylpyrrolidin-2-yl)ethoxy)-5,6,7,8-tetrahydropyrido[3,4-d]pyrimidin-4-yl)piperazin-1-yl)prop-2-en-1-one]: the half-inhibitory concentration (IC50) lay in the range of 0.0001 to 1 µM. The figure for `C=CC(=O)N1CCN(c2nc(OC[C@@H]3CCCN3C)nc3c2CCN(c2ccccc2Cl)C3)CC1CC#N` (stereo partly drawn) [Example 229] is 0.0001 to 1 µM; for `C=CC(=O)N1CCN(c2nc(OC[C@@H]3CCCN3C)nc3c2CCN(c2nccc4ccccc24)C3)CC1CC#N` (stereo partly drawn) [Example 289, 2-[4-[7-(1-isoquinolyl)-2-[[(2S)-1-methylpyrrolidin-2-yl]methoxy]-6,8-dihydro-5H-pyrido[3,4-d]pyrimidin-4-yl]-1-prop-2-enoyl-piperazin-2-yl]acetonitrile] it is above 1 µM; for `C=CC(=O)N1CCN(c2nc(OCCCN3C[C@@H]4C[C@H]3CO4)nc3c2CCN(c2cc(O)cc4ccccc24)C3)CC1` [Example 104, 1-(4-(2-(3-((1S,4S)-2-oxa-5-azabicyclo[2.2.1]heptan-5-yl)propoxy)-7-(3-hydroxynaphthalen-1-yl)-5,6,7,8-tetrahydropyrido[3,4-d]pyrimidin-4-yl)piperazin-1-yl)prop-2-en-1-one] it is 0.0001 to 1 µM.

On to `C=CC(=O)N1CCN(c2nc(OC[C@@H]3CCCN3CCOC)nc3c2CCN(c2cccc4ccccc24)C3)CC1CC#N` (stereo partly drawn) [Example 266, 2-(1-acryloyl-4-(2-(((S)-1-(2-methoxyethyl)pyrrolidin-2-yl)methoxy)-7-(naphthalen-1-yl)-5,6,7,8-tetrahydropyrido[3,4-d]pyrimidin-4-yl)piperazin-2-yl)acetonitrile], for which the half-inhibitory concentration (IC50) lay in the range of 0.0001 to 1 µM. Take `C=CC(=O)N1CCN(c2nc(O[C@H](C)CN3CC[C@@H](OC)C3)nc3c2CCN(c2cc(O)cc4ccccc24)C3)CC1` [Example 63, 1-(4-(7-(3-hydroxynaphthalen-1-yl)-2-(((R)-1-((R)-3-methoxypyrrolidin-1-yl)propan-2-yl)oxy)-5,6,7,8-tetrahydropyrido[3,4-d]pyrimidin-4-yl)piperazin-1-yl)prop-2-en-1-one]: the IC50 is above 1 µM. As for `C=CC(=O)N1CCN(c2nc(OC[C@@H]3CCN(C)C3)nc3c2CCN(c2ccccc2C(F)(F)F)C3)CC1CC#N` (stereo partly drawn) [Example 298, 2-(1-acryloyl-4-(2-(((R)-1-methylpyrrolidin-3-yl)methoxy)-7-(2-(trifluoromethyl)phenyl)-5,6,7,8-tetrahydropyrido[3,4-d]pyrimidin-4-yl)piperazin-2-yl)acetonitrile], the half-inhibitory concentration (IC50) was 0.0001 to 1 µM. Regarding `CC#CC(=O)N1CCN(c2nc(OC[C@@H]3CCCN3C)nc3c2CCN(c2cccc4cccc(Cl)c24)C3)C[C@@H]1CC#N` [Example 391, 2-((S)-1-(but-2-ynoyl)-4-(7-(8-chloronaphthalen-1-yl)-2-(((S)-1-methylpyrrolidin-2-yl)methoxy)-5,6,7,8-tetrahydropyrido[3,4-d]pyrimidin-4-yl)piperazin-2-yl)acetonitrile], the IC50 lay within 0.0001 to 1 µM.

Regarding `C=CC(=O)N1CCN(c2nc(OC[C@@H]3CCCN3C)nc3c2CCN(c2cccc4cnccc24)C3)CC1CC#N` (stereo partly drawn) [Example 262, 2-[4-[7-(5-isoquinolyl)-2-[[(2S)-1-methylpyrrolidin-2-yl]methoxy]-6,8-dihydro-5H-pyrido[3,4-d]pyrimidin-4-yl]-1-prop-2-enoyl-piperazin-2-yl]acetonitrile], the IC50 is above 1 µM. The figure for `C=C(F)C(=O)N1CCN(c2nc(OC[C@@H]3C[C@H](C)CN3C)nc3c2CCN(c2cccc4cccc(C)c24)C3)C[C@@H]1CC#N` [Example 616, 2-[(2S)-4-[2-[[(2S,4S)-1,4-dimethylpyrrolidin-2-yl]methoxy]-7-(8-methyl-1-naphthyl)-6,8-dihydro-5H-pyrido[3,4-d]pyrimidin-4-yl]-1-(2-fluoroprop-2-enoyl)piperazin-2-yl]acetonitrile] is 0.0001 to 1 µM; for `C=C(F)C(=O)N1CCN(c2nc(OC[C@@H]3CCCN3C)nc3c2CCN(c2cccc4cccc(Cl)c24)C3)[C@@H](C(F)F)C1` [Example 621, 1-[(3R)-4-[7-(8-chloro-1-naphthyl)-2-[[(2S)-1-methylpyrrolidin-2-yl]methoxy]-6,8-dihydro-5H-pyrido[3,4-d]pyrimidin-4-yl]-3-(difluoromethyl)piperazin-1-yl]-2-fluoro-prop-2-en-1-one] it is above 1 µM. `C=CC(=O)N1CCN(c2nc(OCCCN3CCOCC3)nc3c2CCN(c2cc(O)cc4ccccc24)C3)CC1` [Example 74, 1-(4-(7-(3-hydroxynaphthalen-1-yl)-2-(3-morpholinopropoxy)-5,6,7,8-tetrahydropyrido[3,4-d]pyrimidin-4-yl)piperazin-1-yl)prop-2-en-1-one]: the IC50 lay in the range of 0.0001 to 1 µM. On to `C=CC(=O)N1CCN(c2nc(OC[C@@H]3CCCN3C)nc3c2CCN(c2cccc4ncccc24)C3)CC1CC#N` (stereo partly drawn) [Example 294, 2-[4-[2-[[(2S)-1-methylpyrrolidin-2-yl]methoxy]-7-(5-quinolyl)-6,8-dihydro-5H-pyrido[3,4-d]pyrimidin-4-yl]-1-prop-2-enoyl-piperazin-2-yl]acetonitrile], for which the IC50 is above 1 µM. As to `C=CC(=O)N1CCN(c2nc(OCC(C)(C)N(C)C)nc3c2CCN(c2cccc4ccccc24)C3)CC1CC#N` (stereo not drawn) [Example 269, 2-(1-acryloyl-4-(2-(2-(dimethylamino)-2-methylpropoxy)-7-(naphthalen-1-yl)-5,6,7,8-tetrahydropyrido[3,4-d]pyrimidin-4-yl)piperazin-2-yl)acetonitrile], the IC50 is 0.0001 to 1 µM. As to `C=CC(=O)N1CCN(c2nc(OC[C@H]3COCCN3C)nc3c2CCN(c2cccc4ccccc24)C3)CC1CC#N` (stereo partly drawn) [Example 446, 2-(1-Acryloyl-4-(2-(((R)-4-methylmorpholin-3-yl)methoxy)-7-(naphthalen-1-yl)-5,6,7,8-tetrahydropyrido[3,4-d]pyrimidin-4-yl)piperazin-2-yl)acetonitrile], the IC50 is above 1 µM. Turning to `C=C(F)C(=O)N1CCN(c2nc(OC[C@@H]3CCCN3C)nc3c2CCN(c2c(C)c(C)cc4[nH]ncc24)C3)C[C@@H]1CC#N` [Example 604, 2-[(2S)-4-[7-(5,6-dimethyl-1H-indazol-4-yl)-2-[[(2S)-1-methylpyrrolidin-2-yl]methoxy]-6,8-dihydro-5H-pyrido[3,4-d]pyrimidin-4-yl]-1-(2-fluoroprop-2-enoyl)piperazin-2-yl]acetonitrile], the IC50 was in the range of 0.0001 to 1 µM. In the case of `C=CC(=O)N1CCN(c2nc(OC[C@@H]3CCCN3C)nc3c2CCN(c2cccc(Cl)c2C)C3)C[C@@H]1CC#N` [Example 420, 2-((S)-1-acryloyl-4-(7-(3-chloro-2-methylphenyl)-2-(((S)-1-methylpyrrolidin-2-yl)methoxy)-5,6,7,8-tetrahydropyrido[3,4-d]pyrimidin-4-yl)piperazin-2-yl)acetonitrile] it was 0.0001 to 1 µM.

As to `C=CC(=O)N1CCN(c2nc(O[C@H](C)CN(C)C)nc3c2CCN(c2c(C)ccc4[nH]ncc24)C3)CC1CC#N` (stereo partly drawn) [Example 152, 2-[4-[2-[(1R)-2-(dimethylamino)-1-methyl-ethoxy]-7-(5-methyl-1H-indazol-4-yl)-6,8-dihydro-5H-pyrido[3,4-d]pyrimidin-4-yl]-1-prop-2-enoyl-piperazin-2-yl]acetonitrile], the IC50 fell in the range of 0.0001 to 1 µM.

`C=CC(=O)N1CCN(c2nc(OC[C@@H]3C[C@H](O)CN3C)nc3c2CCN(c2cccc4ccccc24)C3)CC1CC#N` (stereo partly drawn) [Example 419, 2-(1-acryloyl-4-(2-(((2S,4S)-4-hydroxy-1-methylpyrrolidin-2-yl)methoxy)-7-(naphthalen-1-yl)-5,6,7,8-tetrahydropyrido[3,4-d]pyrimidin-4-yl)piperazin-2-yl)acetonitrile]: the IC50 lay within 0.0001 to 1 µM. In the case of `C=CC(=O)N1CCN(c2nc(OC[C@@H]3CCCN3C)nc3c2CCN(c2c(F)ccc4ccccc24)C3)CC1CC#N` (stereo partly drawn) [Example 311, 2-(1-acryloyl-4-(7-(2-fluoronaphthalen-1-yl)-2-(((S)-1-methylpyrrolidin-2-yl)methoxy)-5,6,7,8-tetrahydropyrido[3,4-d]pyrimidin-4-yl)piperazin-2-yl)acetonitrile] it was 0.0001 to 1 µM. The figure for `C=CC(=O)N1CCN(c2nc(OC[C@@H]3C[C@@H](F)CN3C(C)C)nc3c2CCN(c2cncc(F)c2C(F)(F)F)C3)C[C@@H]1CC#N` [Example 386, 2-((S)-1-acryloyl-4-(2-(((2S,4R)-4-fluoro-1-isopropylpyrrolidin-2-yl)methoxy)-7-(5-fluoro-4-(trifluoromethyl)pyridin-3-yl)-5,6,7,8-tetrahydropyrido[3,4-d]pyrimidin-4-yl)piperazin-2-yl)acetonitrile] is 0.0001 to 1 µM; for `C=CC(=O)N1CCN(c2nc(OC[C@@H]3CCCN3C)nc3c2CCN(c2cccc4ccccc24)C3)[C@H](C)C1` [Example 353, 1-[(3R)-3-methyl-4-[2-[[(2S)-1-methylpyrrolidin-2-yl]methoxy]-7-(1-naphthyl)-6,8-dihydro-5H-pyrido[3,4-d]pyrimidin-4-yl]piperazin-1-yl]prop-2-en-1-one] it is above 1 µM; for `C=CC(=O)N1CCN(c2nc(OC[C@@H]3C[C@@H](F)CN3C)nc3c2CCN(c2cncc(F)c2C(F)(F)F)C3)C[C@@H]1CC#N` [Example 384, 2-((S)-1-acryloyl-4-(2-(((2S,4R)-4-fluoro-1-methylpyrrolidin-2-yl)methoxy)-7-(5-fluoro-4-(trifluoromethyl)pyridin-3-yl)-5,6,7,8-tetrahydropyrido[3,4-d]pyrimidin-4-yl)piperazin-2-yl)acetonitrile] it is 0.0001 to 1 µM. For `C=CC(=O)N1CCN(c2nc(OC[C@@H]3CCCN3C)nc3c2CCN(c2cccc(C)c2Cl)C3)C[C@@H]1CC#N` [Example 425, 2-((S)-1-acryloyl-4-(7-(2-chloro-3-methylphenyl)-2-(((S)-1-methylpyrrolidin-2-yl)methoxy)-5,6,7,8-tetrahydropyrido[3,4-d]pyrimidin-4-yl)piperazin-2-yl)acetonitrile], the IC50 lay in the range of 0.0001 to 1 µM.
